This passage reports IC50 results from BindingDB's records for doi:10.1080/14756360802323720 (National University of Mexico City, 2009).

The structures appear in SMILES notation.

This assay concerns the target T1, 3-oxo-5-alpha-steroid 4-dehydrogenase 2 (Homo sapiens, UniProt P31213).
T1 sequence (P31213 whole entry): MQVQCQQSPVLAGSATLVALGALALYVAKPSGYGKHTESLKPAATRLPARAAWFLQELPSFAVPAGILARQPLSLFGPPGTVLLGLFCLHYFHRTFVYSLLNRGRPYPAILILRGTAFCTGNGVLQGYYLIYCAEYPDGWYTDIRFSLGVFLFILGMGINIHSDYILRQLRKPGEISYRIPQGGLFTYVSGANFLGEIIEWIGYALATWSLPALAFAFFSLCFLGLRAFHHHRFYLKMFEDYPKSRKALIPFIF
The experiment in a line: 5Alpha-Reductase Activity Assay. The following applies: pH 6.5; 37 °C. From the text:
The IC50 values for the synthesized steroids with human prostate 5alpha-reductase enzyme.
Regarding `CC(C)(C)NC(=O)[C@H]1CCC2C3CCC4NC(=O)C=C[C@]4(C)C3CC[C@@]21C` (stereo not given in full) [Finasteride, 3], the IC50 (usually the concentration that inhibits the measured activity by half) was found to be 0.0085 µM.

As to `CC(=O)[C@@]1(OC(=O)c2ccccc2)CCC2C3CCC4=CC(=O)CC[C@]4(C)C3CC[C@@]21C` (stereo not given in full) [Steroid, 9a], the IC50 was 0.36 µM. As for `CC(=O)[C@@]1(OC(=O)c2ccc(Br)cc2)CCC2C3CCC4=CC(=O)CC[C@]4(C)C3CC[C@@]21C` (stereo not given in full) [Steroid, 9b], the figure is 0.37 µM; as for `CC(=O)[C@@]1(OC(=O)c2ccccc2)CCC2C3CC[C@@]45O[C@@H]4C(=O)CC[C@]5(C)C3CC[C@@]21C` (stereo not given in full) [Steroid, 10a], 0.013 µM.

Molecule `CC(=O)[C@@]1(OC(=O)c2ccc(Br)cc2)CCC2C3CC[C@@]45O[C@@H]4C(=O)CC[C@]5(C)C3CC[C@@]21C` (stereo not given in full) [Steroid, 10b] displayed an IC50 of 0.0049 µM.
